The record followed here is patent US10190093B2, “Artificial oocyte activation” (The Curators of the University of Missouri, priority 2013, dated 2019).

Data set [1] relates to Metaphase II porcine oocytes. Description: Parthenogenetic activation of porcine oocytes by TPEN alone. The data set is classed as cell-based, pig. The protocol: Oocytes were obtained from either pre-pubertal gilt ovaries from an abattoir (Farmland Foods Inc., Milan, Mo.), or sow-derived oocytes that were purchased from Applied Reproductive Technology (Madison, Wis.). Immature oocytes from gilt ovaries were aspirated from medium size (3-6 mm) follicles by using an 18 gauge hypodermic needle attached to a 10 mL syringe. Oocytes with evenly dark cytoplasm and intact surrounding cumulus cells were then selected for maturation. Around 50 cumulus oocyte complexes were place in a well containing 500 μL of maturation medium, TCM 199 (Invitrogen, Grand Island, N.Y.) with 3.05 mM glucose, 0.91 mM sodium pyruvate, 0.57 mM cysteine, 10 ng/mL epidermal growth factor (EGF), 0.5 mg/mL luteinizing hormone (LH), 0.5 mg/mL follicle stimulating hormone (FSH), 10 ng/mL gentamicin (APP Pharm, Schaumburg, Ill.), and 0.1% polyvinyl alcohol (PVA) for 42-44 hr at 38.5° C., 5% CO2, in humidified air. The oocytes from sows were shipped overnight in maturation medium (TCM199 with 2.9 mM Hepes, […], 10 ng/mL EGF, 0.5 mg/mL p-FSH, 0.91 mM pyruvate, 0.5 mM cysteine, 10% porcine follicular fluid, 25 ng/mL gentamicin) and transferred into fresh medium at 24 hr. At the end of the maturation, the surrounding cumulus cells were removed from the oocytes by vortexing for 3 min in the presence of 0.1% hyaluronidase. Oocytes with a visible polar body were selected in manipulation medium (TCM199 with 0.6 mM NaHCO3, 2.9 mM Hepes, 30 mM NaCl, 10 ng/mL gentamicin, and 3 mg/mL bovine serum albumin [BSA]; and osmolarity of 305) and then used for the experiments. Different oocyte activation methods were used for the experiments. As conventional activation methods, either electrical or chemical activation was used. For electrical activation, mature oocytes were activated in activation medium (0.3 M mannitol, 1.0 mM CaCl2, 0.1 mM MgCl2, and 0.5 mM Hepes) by two direct-current (DC) pulses (1-sec interval) at 1.2 kV/cm for 30 μsec (using BTX Electro Cell Manipulator, Harvard Apparatus, Holliston, Mass.). […] For TPEN mediated activation, mature oocytes were incubated in TL-Hepes media with various concentrations of TPEN for different durations. […] At the end of the culture, where applicable, the frequency of cleaved embryos and blastocysts, and total cell number in the blastocysts were recorded. Hoechst 33342 (1.2 mg/mL) was used to stain nuclei and the embryos were then evaluated by epi-fluorescence microscopy. Metaphase II porcine oocytes were incubated in vitro with TPEN to determine if the concentration/duration of 100 μM of TPEN for 45 min, as described in the mouse study by Suzuki, et al. (Development 137, 2659-2669, 2010) had any effect on pig oocytes. […] A wide range of TPEN concentrations/durations was tested to identify an optimum concentration of TPEN that can activate pig oocytes; 100 μM, 200 μM, and 250 μM and 30 min-2.5 hours of duration were tested (Table 1). Optimum embryo development was achieved by using 200 μM TPEN for 30 min.

The test system of data set [2] is SCNT embryos transferred into surrogate gilt. Description: Embryo transfer, in vivo development competence of SCNT embryos. The protocol: To address in vivo competency of SCNT embryos activated by utilizing TPEN, a series of embryo transfers were performed. For the study, at day 1, the SCNT-derived embryos were surgically transferred into the ampullary-isthmic junction of a surrogate gilt at 0 or 1 days after observed estrus. At the end of gestation periods, piglets were recovered through C-section.
Six embryo transfers were performed for the study and two surrogates carried their pregnancy to term, each resulting in two healthy piglets (Table 6). One of the term development was from SCNT embryos that were not treated with a HDAC inhibitor, Scriptaid.

Data set [3] deals with SCNT embryos. Description: TPEN activation method on the development of SCNT embryos. The data set is classed as cell-based, pig. The conditions noted are these: SCNT embryos activated with TPEN (200 μM, 30 min) as major activating reagent. The protocol:
At the end of the culture, where applicable, the frequency of cleaved embryos and blastocysts, and total cell number in the blastocysts were recorded. Hoechst 33342 (1.2 mg/mL) was used to stain nuclei and the embryos were then evaluated by epi-fluorescence microscopy. Additionally, the effect of the TPEN activation method alone on the development of SCNT embryos was tested.

Consider `c1ccc(CN(CCN(Cc2ccccn2)Cc2ccccn2)Cc2ccccn2)nc1` [TPEN, N,N,N′,N′-tetrakis(2-pyridylmethyl)ethane-1,2-diamine], for which the “Frequency of forming blastocysts on day 7” value in data set [1] (100 μM of TPEN for 45 min) amounted to 13%. Moreover, the “blastocyst formation on day 5” value in data set [1] (100 μM of TPEN for 45 min) is “No blastocyst formation was observed”. Besides, the “expanded blastocysts on day 7” value in data set [1] (100 μM of TPEN for 45 min) is “no expanded blastocysts”. Also, the “toxic effect on embryo development” value in data set [1] (250 μM TPEN over 2.5 hours) is “toxic effect”. The “% blastocysts” value in data set [1] (TPEN alone, 100 μM, 2 hr) is 12.0%; in data set [1] (TPEN alone, 200 μM, 30 min) it was 23.0%; in data set [1] (TPEN alone, 200 μM, 1 hr) it was 20.0%; in data set [1] (TPEN alone, 250 μM, 2 hr), 10.0%. The “total number of nuclei in blastocysts” value in data set [1] (TPEN alone, 200 μM, 30 min) is given as 27.2±1.92. Besides, the “Result of embryo transfer” value in data set [2] (SCNT + 5 μM TPEN, 30 min + Scriptaid) is 2 normal piglets were and Cycled; in data set [2] (SCNT + 5 μM TPEN, 30 min, no Scriptaid) it was 2 normal piglets were and Cycled; in data set [2] (SCNT + 10 μM TPEN, 10 min + Scriptaid) it was “Cycled”. In addition, in data set [2] (embryo transfers of TPEN treated SCNT embryos), the “toxicity to SCNT embryos, full term development” value is reported as “not toxic to the SCNT embryos”. The “Day 6 blastocyst formation” value in data set [3] was 25.8% (8/31). For the same compound, the “Day 7 blastocyst formation” value in data set [3] was 35.5% (11/31).
